Assay results reported in patent publication US20090062255A1, “TUMOR-TARGETING EVALUATION METHODOLOGY AND COMPOUNDS RELATED THERETO” (THALLION PHARMACEUTICALS INC., priority 2007, published 2009).
Read-outs that look alike come from different tables or passages of the source.

How the values were obtained:
Cyclooxygenase-2 (COX-2) = molecular target: T1, Cyclooxygenase-2 (COX-2) (Homo sapiens, UniProt P35354); assay: COX-2 enzyme assay; assay type: biochemical; conditions: 4 μM compound, 1% DMSO; read-out: Percentage of inhibition or binding activity, COX-2 (4 μM)
T1 construct: host or cells: insect Sf21 cells
T1 sequence (P35354 18-604): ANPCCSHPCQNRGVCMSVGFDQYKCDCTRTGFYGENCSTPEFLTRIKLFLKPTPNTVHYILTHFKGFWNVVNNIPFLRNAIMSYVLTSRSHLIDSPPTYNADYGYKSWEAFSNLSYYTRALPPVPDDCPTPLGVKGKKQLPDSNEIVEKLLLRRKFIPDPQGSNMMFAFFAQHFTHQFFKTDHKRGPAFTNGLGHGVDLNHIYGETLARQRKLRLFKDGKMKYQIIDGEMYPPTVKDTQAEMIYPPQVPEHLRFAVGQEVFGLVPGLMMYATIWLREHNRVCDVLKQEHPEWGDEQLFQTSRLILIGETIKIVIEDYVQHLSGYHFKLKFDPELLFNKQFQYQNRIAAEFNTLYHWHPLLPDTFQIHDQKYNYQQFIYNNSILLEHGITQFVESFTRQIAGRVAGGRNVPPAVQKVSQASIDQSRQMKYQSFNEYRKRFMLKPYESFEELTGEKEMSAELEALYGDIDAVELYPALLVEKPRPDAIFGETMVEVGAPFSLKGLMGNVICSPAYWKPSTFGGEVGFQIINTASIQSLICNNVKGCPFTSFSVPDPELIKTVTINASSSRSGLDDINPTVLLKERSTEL
Excerpt: Cyclooxygenase-2 (COX-2) enzyme is made only in response to injury or infection. It produces prostaglandins involved in inflammation and the immune response. Elevated levels of COX-2 in the body have been linked to cancer.
(§1) The procedures used were based on known assays: ACAT (from rat; Ref: Largis et al (1989), J. Lipid. Res., vol 30, 681-689), COX-2 (human; Ref: Riendeau et al (1997), Can. J. Physiol. Pharmacol., vol 75, 1088-1095 and Warner et al (1999), Pro. Natl. Acad. Sci. USA, vol 96, 7563-7568), 5-LO (human; Ref: Carter et al (1991), J. Pharmacol. Exp. Ther., vol 256, no 3, 929-937, and Safayhi et al (2000), Planta Medica, vol 66, 110-113), PBR (from rat; Le Fur et al (1983), Life Sci. USA, vol 33, 449-457), CysLT1 (human; Martin et al (2001), Biochem. Pharmacol., vol 62, no 9, 1193-1200) and CBR (from rat; Damm et al (1978), Res. Comm. Chem. Pathol. Pharmacol., vol 22, 597-600 and Speth et al (1979), Life Sci., vol 24, 351-357).
(§2) Binding assays were done for each of Compounds 1-12 and 46 using ACAT, COX-2, 5-LO, PBR and CysLT1 enzymes. The procedures used are based on the respective references mentioned above and the conditions are summarized in Tables 16 (enzyme assays) and 17 (radioligand receptor assays).
(§3) Binding Assays were done at constant concentration of the compound, in 1% DMSO as vehicle, and are specified below each enzyme/receptor type in Table 18. The results are expressed in Table 18 as percentage inhibition. Significance was obtained when a result was ≧50% binding or inhibition (underlined).

[1] = molecular target: T2, Leukotriene, Cysteinyl (CysLT1) receptor (Homo sapiens, UniProt Q9Y271); assay: CysLT1 radioligand binding assay; conditions: 4 μM compound, 1% DMSO; read-out: Percentage of inhibition or binding activity, CysLT1 (4 μM)
T2 construct: expressed in transfected cells; host or cells: CHO-K1 cells
T2 sequence (Q9Y271 1-337): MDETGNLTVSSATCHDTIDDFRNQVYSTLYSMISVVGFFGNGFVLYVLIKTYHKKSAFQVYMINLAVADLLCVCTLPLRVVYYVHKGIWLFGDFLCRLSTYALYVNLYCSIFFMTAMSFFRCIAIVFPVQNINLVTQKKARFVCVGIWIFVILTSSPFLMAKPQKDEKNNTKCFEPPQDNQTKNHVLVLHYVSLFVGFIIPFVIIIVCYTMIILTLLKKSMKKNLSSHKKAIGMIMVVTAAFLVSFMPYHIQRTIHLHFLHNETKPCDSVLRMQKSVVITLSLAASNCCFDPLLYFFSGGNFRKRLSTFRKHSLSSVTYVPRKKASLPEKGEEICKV
Excerpt: Leukotriene, Cysteinyl (CysLT1) is involved in inflammation and CysLT1-selective antagonists are used as treatment for bronchial asthma.
as §1, §2, §3

[2] = system: HT-29 (colorectal carcinoma); assay: In vitro cytotoxic activity (GI50, propidium iodide), HT-29; assay type: cell-based; conditions: for GI50: Homo sapiens, HT-29, 96 h, method (1), 96 hours
Protocol: (§4) Procedures used for each series of tests are described below.
(§5) Compounds were dissolved at 10 mM in DMSO. […] The following day, propidium iodide was added to one of the two plates and fluorescence measured (Tz). […] Each compound was tested at each concentration and in triplicates. The equivalent cell number was determined after adding propidium iodide by measuring the signal by fluorescence (C for control).

SF268 (CNS) = assay: In vitro cytotoxic activity (GI50, propidium iodide), SF-268; assay type: cell-based; conditions: Homo sapiens, SF-268, 96 h, method (1), 96 hours
Protocol: as §4, §5

[3] = system: PC-3 (prostate adenocarcinoma); assay: In vitro cytotoxic activity (GI50, propidium iodide), PC-3; assay type: cell-based, human; conditions: Homo sapiens, 96 h, method (1)
Protocol: as §4, §5

[4] = system: MDA-MB-231 (mammary gland adenocarcinoma); assay: In vitro cytotoxic activity (GI50, propidium iodide), MDA-MB-231; assay type: cell-based, human; conditions: Homo sapiens, MDA-MB-231, 96 h, method (1), 96 hours
Protocol: as §4, §5

SRBC = assay: Hemolysis of SRBC; assay type: cell-based; conditions: concentration necessary to achieve 50% hemolysis of SRBC
[5] = for MTD: mouse, in vivo
[6] = system: ERK phosphorylation, human pancreatic MiaPaCa-2 cell line (mutated K-Ras); assay: EGF-stimulated ERK phosphorylation in MiaPaCa-2 cells; assay type: cell-based
Excerpt: To evaluate whether ECO-4601 interferes with K-Ras signalling, the human pancreatic MiaPaCa-2 cell line, a tumor cell line known to express mutated K-Ras, was employed.

Row | SMILES | inhibition at 4 µM (Cyclooxygenase-2 (COX-2)) [%] | inhibition at 4 µM [1] [%] | GI50 [2] [µM] | GI50 (SF268 (CNS)) [µM] | GI50 [3] [µM] | GI50 [4] [µM] | Hemolysis (ED50 μg/mL) (SRBC) [µg/mL] | increase of cytotoxic activity compared to parent Compound 1 ([2]; HT-29 cell line) | weight losses ([5]; for several days post-injection) | MTD ([5]; ip) [mg/kg] | inhibition of EGF-stimulated ERK phosphorylation [6] | MTD ([5]; iv) [mg/kg]
1 | CC(=O)Oc1cc(OC(C)=O)c2c(c1)N(CC=C(C)CCC=C(C)CCC=C(C)C)C(=O)c1cccc(O)c1N2 [Compound 9, 6,8-diacetoxy-10-farnesyl-4-hydroxy-5,10-dihydro-dibenzo[b,e][1,4]diazepin-11-one] | 44 | 70 | 12.6 | 1.88 | 1.44 | 2.48 | >64 |  |  |  |  | 
2 | CC(=O)Oc1cc(O)c2c(c1)N(CC=C(C)CCC=C(C)CCC=C(C)C)C(=O)c1cccc(OC(C)=O)c1N2 [Compound 11, 4,8-diacetoxy-10-farnesyl-6-hydroxy-5,10-dihydro-dibenzo[b,e][1,4]diazepin-11-one] | 57 | 74 | 16 | 5.79 | 5.35 | 7.72 | 9.8 |  |  |  |  | 
3 | COc1cc(O)cc2c1Nc1c(O)cccc1C(=O)N2C/C=C(\C)CC/C=C(\C)CCC=C(C)C [Compound 5, 10-farnesyl-4,8-dihydroxy-6-methoxy-5,10-dihydro-dibenzo[b,e][1,4]diazepin-11-one] | 63 | 72 |  |  |  |  | >64 |  |  |  |  | 
4 | COc1cccc2c1Nc1c(OC)cc(O)cc1N(CC=C(C)CCC=C(C)CCC=C(C)C)C2=O [Compound 7, 10-farnesyl-8-hydroxy-4,6-dimethoxy-5,10-dihydro-dibenzo[b,e][1,4]diazepin-11-one] | 26 | 15 |  |  |  |  | >64 |  |  |  |  | 
5 | CC(=O)Oc1cc(OC(C)=O)c2c(c1)N(CC=C(C)CCC=C(C)CCC=C(C)C)C(=O)c1cccc(OC(C)=O)c1N2 [Compound 12, 4,6,8-triacetoxy-10-farnesyl-5,10-dihydro-dibenzo[b,e][1,4]diazepin-11-one] | 30 | 33 |  |  |  |  | >64 |  |  |  |  | 
6 | COc1cccc2c1Nc1c(O)cc(O)cc1N(C/C=C(\C)CC/C=C(\C)CCC=C(C)C)C2=O [Compound 4, 10-farnesyl-6,8-dihydroxy-4-methoxy-5,10-dihydro-dibenzo[b,e][1,4]diazepin-11-one] | 78 | 64 |  |  |  |  | >64 |  |  |  |  | 
7 | CC(=O)Oc1cccc2c1Nc1c(OC(C)=O)cc(O)cc1N(CC=C(C)CCC=C(C)CCC=C(C)C)C2=O [Compound 10, 4,6-diacetoxy-10-farnesyl-8-hydroxy-5,10-dihydro-dibenzo[b,e][1,4]diazepin-11-one] | 45 | 67 | 13 | 2.02 | 1.35 | 1.55 | >64 |  |  |  |  | 
8 | COc1cc(OC)c2c(c1)N(C/C=C(\C)CC/C=C(\C)CCC=C(C)C)C(=O)c1cccc(O)c1N2 [Compound 6, 10-farnesyl-4-hydroxy-6,8-dimethoxy-5,10-dihydro-dibenzo[b,e][1,4]diazepin-11-one] | 45 | 24 |  |  |  |  | >64 |  |  |  |  | 
9 | COc1cc(OC)c2c(c1)N(CC=C(C)CCC=C(C)CCC=C(C)C)C(=O)c1cccc(OC)c1N2 [Compound 8, 10-farnesyl-4,6,8-trimethoxy-5,10-dihydro-dibenzo[b,e][1,4]diazepin-11-one] | 19 | 13 |  |  |  |  |  |  |  |  |  | 
10 | CC(C)=CCC/C(C)=C/CC/C(C)=C/CN1C(=O)c2cccc(O)c2N(C)c2c(O)cc(O)cc21 [Compound 2, 10-farnesyl-4,6,8-trihydroxy-5-methyl-5,10-dihydro-dibenzo[b,e][1,4]diazepin-11-one] | 92 | 75 |  |  |  |  | 5.12 | fifty fold increase | about 7% | ≥ 50 |  | 
11 | CC(C)=CCC/C(C)=C/CC/C(C)=C/CN1C(=O)c2cccc(O)c2Nc2c(O)cc(O)cc21 [Compound 1, 10-farnesyl-4,6,8-trihydroxy-5,10-dihydrodibenzo[b,e][1,4]diazepin-11-one] | 96 | 92 |  |  |  |  | 7.6 |  |  |  | dose and time dependent inhibition | 150
12 | CC(C)=CCC/C(C)=C/CC/C(C)=C/CN1C(=O)c2cccc(O)c2N(Cc2ccccc2)c2c(O)cc(O)cc21 [Compound 3, 5-benzyl-10-farnesyl-4,6,8-trihydroxy-5,10-dihydro-dibenzo[b,e][1,4]diazepin-11-one] | 76 | 59 |  |  |  |  | >64 |  |  |  |  | 
13 | CC(C)CCCC(C)CCCC(C)CCN1C(=O)c2cccc(O)c2Nc2c(O)cc(O)cc21 (centres unmarked) [Compound 46, 10-(3,7,11-trimethyldodecyl)-4,6,8-trihydroxy-5,10-dihydro-dibenzo[b,e][1,4]diazepin-11-one] | 95 | 71 |  |  | 0.9 |  | 13.9 |  |  |  |  | 
